From patent US4346078A, “Novel anticoagulant agmatine derivatives and process for the preparation thereof” (Richter Gedeon Vegyeszeti Gyar Rt., priority 1980, dated 1982) come the findings set out here.

Where a SMILES comes first, the peptide text is derived from it. [ ]: non-standard residue; d: D form. The star is where a group is joined. dPhg = N[C@@H](C(=O)O)c1ccccc1; Agmatine = N=C(N)NCCCCN*; Bn = c1ccc(C*)cc1

The target in test [1] is T1, Human Thrombin (Homo sapiens, UniProt P00734).
T1 construct: 0.1 ml US Standard Human Thrombin 5 NIH Unit/ml
The test is described as follows: Fibrinogen-thrombin reaction: amount required to double the thrombin time of fibrinogen. The settings on record: for Amount of agmatine derivative required to double the thrombin-time of fibrinogen: bovine fibrinogen, human thrombin 5 NIH Unit/ml, pH 7.4, thrombin time without derivative 15 seconds; for relative activity: related to tosyl-agmatine, taken as unity. Format: biochemical. An excerpt:
It is known that the simple acyl derivatives of agmatine (1-amino-4-guanidino-butane), as for instance tosyl-agmatine (1-[p-toluene-sulfonylamido]-4-guanidino-butane), have the ability to inhibit the proteolytic reactions of both tripsin and thrombin (Lorand and Rule: Nature, 190, 722, 1961; Rule and Lorand: Biochim. Biophys. Acta, 81, 130, 1964). According to these authors tosyl-agmatine delays the clotting of blood plasma, and also is assumed to suppress the fibrinogen-thrombin reaction. In our own experiments, however, the fibrinogen-thrombin reaction was affected by tosyl-agmatine to a negligible degree: 0.7 mg of tosyl-agmatine is required to double (from 15 sec to 30 sec) the thrombin time of 1 ml of a solution containing 1.25 mg of fibrinogen and 1.25 NIH units of thrombin ("Minimum Requirements of Dried Thrombin", 2nd rev. Div. Biol. Conf. Natl. Inst. Health, Bethesda, Md., United States 1946).
The potency of the substances is defined by the amount of the compound required to double the thrombin time of fibrinogen. Furthermore, the relative potency of the novel agmatine derivatives related to tosyl-agmatine (the activity of the last-mentioned drug is taken as unity) is listed, too.
The potency of the compounds was assayed in the following system:
0.2 ml of 0.5 percent bovine fibrinogen in 0.9 percent NaCl solution,
0.1 ml of tris-(hydroxymethyl)-methylamine hydrochloride buffer solution (pH=7.4) containing the agmatine derivative, and
0.1 ml US Standard Human Thrombin 5 NIH Unit/ml.
The thrombin time of the system devoid of agmatine derivative is 15 seconds.

For another test, the system named is gray rabbits. The test is described as follows: In vivo prothrombin activity of the blood assayed according to Quick. Also noted: species or system rabbit. The protocol:
In in vivo trials gray rabbits (2 to 3 kg) were administered subcutaneously:
b. 10 mg/kg D-Phe-Pro-Agm.2HCl, or
c. 5 mg/kg heparin and 10 mg/kg D-Phe-Pro-Agm.2HCl.

The target of test [2] is T1, Human Thrombin. The test is described as follows: Relative thrombin-time in human citrate plasma B. The following applies: system B human citrate plasma, without inhibitor = 1. Format: biochemical. As to the method: (§1) In in vitro trials the effect of D-Phe-Pro-Agm.2HCl (in formula I, X is a D-phenylalanine moiety, B is chloride ion and n=2) and heparin was studied in an isolated system, in a fibrinogen-thrombin reaction mixture A and in human citrate plasma B:
0.2 ml of human citrate plasma
0.1 ml US Standard Human Thrombin 10 NIH U/ml.

The target in test [3] is T1, Human Thrombin. The test is described as follows: Relative thrombin-time in isolated fibrinogen-thrombin reaction mixture A. Format: biochemical. The following applies: system A, without inhibitor = 1. As to the method:
as §1
0.2 ml of 0.5 percent bovine fibrinogen in 0.9 percent saline solution,
0.1 ml US Standard Human Thrombin 10 NIH Unit/ml.

[4] abbreviates: D-Phe-Pro-Agm.2HCl 0.10 μg/ml reaction mixture.
Where [5] appears, read: heparin 0.05 μg/ml reaction mixture.
The mark [6] stands for this setting: heparin 0.10 μg/ml reaction mixture.
Where [7] appears, read: heparin 0.20 μg/ml reaction mixture.

With `ClOCl.N=C(N)NCCCCNC(=O)[C@@H]1CCCN1C(=O)[C@H](N)Cc1ccccc1` [H--D--Phe--Pro--Agm, D-Phenylalanyl-L-prolyl-agmatine-dichlorohydrate] (H-[dF]-Pro-Agmatine), the “anticoagulant potency (in words)” value at Human Thrombin [1] is recorded as “extremely high activity”. For the same molecule, the “Amount of agmatine derivative required to double the thrombin-time of fibrinogen” value (from here on “Amount of agmatine derivative required”) at Human Thrombin [1] was found to be 0.12 μ/reaction mixture. At Human Thrombin [1], this molecule gave a relative activity of 2333. Also, the “prothrombin activity of the blood” value in the test on gray rabbits (10 mg/kg D-Phe-Pro-Agm.2HCl subcutaneously) is listed as “practically unaltered”. Besides, the “Relative thrombin-time, alone” value on Human Thrombin [2] (D-Phe-Pro-Agm.2HCl 0.05 μg/ml reaction mixture) is recorded as 2.2; at Human Thrombin [2] (setting [4]), 3.4; on Human Thrombin [3] (setting [4]), 2.5; on Human Thrombin [3] (D-Phe-Pro-Agm.2HCl 0.20 μg/ml reaction mixture), 4.0.
For the molecule `ClOCl.N=C(N)NCCCCNC(=O)[C@@H]1CCCN1C(=O)[C@H](N)c1ccccc1` [H--D--Phg--Pro--Agm, D-Phenylglycyl-L-prolyl-agmatine-dichlorohydrate] (H-[dPhg]-Pro-Agmatine), on Human Thrombin [1], the “Amount of agmatine derivative required” value worked out at 1.4 μ/reaction mixture and the relative activity is given as 200.
Consider `ClOCl.N=C(N)NCCCCNC(=O)[C@@H]1CCCN1C(=O)[C@H](N)COCc1ccccc1` [H--D--Ser(Bzl)--Pro--Agm, O-Benzyl-D-seryl-L-prolyl-agmatine-dichlorohydrate] (H-[dS](Bn)-Pro-Agmatine), for which, on Human Thrombin [1], the “Amount of agmatine derivative required” value is recorded as 0.7 μ/reaction mixture and the relative activity was determined as 400.
Take `Cc1ccc(S(=O)(=O)NCCCCNC(=N)N)cc1` [Tosyl--agmatine, 1-[p-toluene-sulfonylamido]-4-guanidino-butane, reference compound]: the “amount required to double (from 15 sec to 30 sec) the thrombin time” value on Human Thrombin [1] (1 ml of a solution containing 1.25 mg of fibrinogen and 1.25 NIH units of thrombin) was 0.7 mg. Also, at Human Thrombin [1], the “Amount of agmatine derivative required” value came out at 280 μ/reaction mixture and the relative activity was 1.
Take Heparin: the “prothrombin activity of the blood” value with gray rabbits (5 mg/kg heparin subcutaneously) is “practically unaltered”. The “Relative thrombin-time, alone” value at Human Thrombin [2] (setting [5]) turned out to be 1.0; on Human Thrombin [2] (setting [6]) it was 2.0; on Human Thrombin [2] (setting [7]) it was 3.8; at Human Thrombin [3] (setting [5]), 1.1; at Human Thrombin [3] (setting [6]), 1.5; at Human Thrombin [3] (setting [7]), 2.0.
